Assay results taken from US20090280062A1, “LONGEVITY-PROMOTING EFFECTS OF ACETIC ACID AND REISHI POLYSACCHARIDE” (priority 2008, published 2009).

What was measured:
[1] = tested on: wild-type C. elegans (N2); test: Lifespan analysis of C. elegans after treatment with test substances; type: in vivo; conditions: acetic acid and vitamins 50 ppm, RF3 and mushroom polysaccharide fractions 100 ppm (FIG. 1); 20° C.; versus water control
Text: Strains, bacteria, natural products and chemicals. The wild-type N2 strain of C. elegans were used in all experiments. The worms were maintained and cultured on nematode growth medium (NGM) agar plates or in liquid medium with E. coli OP50 as a food source. […] Contaminating food and worm debris were removed by sucrose floatation. In addition to OP50, two E. coli strains for RNAi were used (III-1N20 for TIR-1 RNAi and I-5M24 for DAF-16 RNAi). RF3, crude mycelium-powders of A. camphorate and H. erinaceus were prepared as described in previous papers. Each solution was diluted with deionized water to make test solutions of desired concentrations for various assays. Lifespan analysis after treatment with various substances.

[2] = tested on: RAB-1 and PMK-1 (MAPK pathway); test: RT-PCR of RAB-1 and PMK-1 transcripts (MAPK pathway) in C. elegans; conditions: in vivo transcription after treatment; RF3 100 ppm, 2 days
Procedure: (§1) RNA preparation and reverse transcriptase-PCR(RT-PCR). Total RNA from batches of C. elegans were isolated from samples in the NGM medium at appropriate time intervals using an RNeasy mini kit (Qiagen). Subsequently, RNA (500 ng) from each sample was reverse-transcribed and PCR was performed using a Superscript One-step RT-PCR kit (Invitrogen). […] PCR products were run on 1.8% agarose gel and stained with 0.4 μg/ml ethidium bromide. Stained bands were visualized under UV light and photographed with a camera (Nikon […]).

DAF-16 = test: Semi-quantitative RT-PCR of DAF-16 transcripts in C. elegans; type: in vivo; conditions: day 2 after treatment; acetic acid 50 ppm, extracts 100 ppm; normalised to ACT-1
Procedure: as §1

Q: How did the “lifespan-extending effect on C. elegans” value [1] turn out when CC(=O)O [Acetic acid, acetic acid] was run?
A: showed lifespan-extending effect

Q: What about the “MAPK pathway activation (RAB-1 and PMK-1 transcription levels)” value [2] of the same compound?
A: apparently not involved

Q: What about the DAF-16 expression (DAF-16) of the same compound?
A: significant increase
